Assay results from patent publication US8278343B2, “Pyrrolidines” (Pfizer Inc., priority 2008, dated 2012).

Molecular target: T1, recombinant human EP-2 receptor (Homo sapiens, UniProt P43116)
T1 construct: stably transfected with full length cDNA encoding human Prostaglandin E2; expressed in transfected cells
Assay: In vitro antagonist potency against recombinant human prostaglandin E2 (EP-2) receptor in CHO cells (cAMP, Protocol 1)
Assay type: cell-based
Settings: CHO cells expressing recombinant human EP-2 receptor, stimulated with 5 nM PGE2; cAMP readout; Ki by Cheng-Prusoff equation; read-out: EP2 Ki
Procedure: 1.0 Measurement of In Vitro Antagonist Potency (IC50) of Compounds Against Recombinant Human Prostaglandin E2 Receptor in CHO Cells
The prostaglandin E2 (EP-2) receptor is Gs coupled and agonism of the receptor by PGE2 results in activation of intracellular adenylate cyclase enzymes that synthesise the second messenger signalling molecule, adenosine 3′,5′-cyclic monophosphate (cAMP). CHO cells expressing the recombinant human EP-2 receptor are stimulated with PGE2 (5 nM) equivalent to approximately […] values to give the maximal cAMP signal. Decreases in cAMP levels following treatment of stimulated recombinant EP-2 cells with potential antagonist compounds were measured and potency (IC50) calculated as follows.
A Chinese hamster ovary (CHO) cell line stably transfected with full length cDNA encoding human Prostaglandin E2 was established using standard molecular biology methods. Test compounds were dissolved in dimethyl sulphoxide (DMSO) at 4 mM. 11 point half log unit increment dilution series of test compound were prepared in DMSO then diluted 1 in 40 in a buffer comprised of phosphate buffered saline (PBS) and 0.05% pluronic F-127 surfactant. Freshly cultured cells at 80-90% confluence were harvested and re-suspended in 90% growth media/10% DMSO. The cells were frozen using a planar freezer and stored in frozen aliquots in cryovials in liquid nitrogen until the day of the experiment. A vial of cells was defrosted in a 37° C. water bath for 2 min, then transferred to 10 ml of Dulbecco's Modified Eagle's Medium (DMEM). The cells were then centrifuged for 5 min at 1000 g and the pellet re-suspended at 1,000,000 cells/ml in DMEM. 5,000 cells (5 ul) were added to 5 ul of the compound dilution series in a 384 well assay plate and pre-incubated for 30 min at 37° C. 5 ul of agonist (15 nM PGE2 in PBS to give 5 nM FAC) was added and plates further incubated for 90 min at 37° C. The relative cAMP concentration in each well was then measured using a β-galactosidase enzyme fragment complementation method purchased in kit form as the Discoverx cAMP II kit from GE Healthcare, UK. […] Sigmoidal curves were fitted to plots of log10 inhibitor concentration vs percent effect. IC50 estimates were determined as the concentration of test compound giving an effect half way between the bottom and top asymptotes of the sigmoidal dose response curve. Each experiment included an IC50 determination for the literature compound as a standard to track assay consistency and allow fair comparison between values obtained in different experiments. The EC50 of PGE2 is used in combination with the ligand concentration in the assay to determine Ki values for antagonist dose responses using the Cheng-Prusoff equation. Consequently an agonist dose response curve is carried out for each experiment using the same incubation as the antagonist plate.

T1 sequence (P43116 whole entry): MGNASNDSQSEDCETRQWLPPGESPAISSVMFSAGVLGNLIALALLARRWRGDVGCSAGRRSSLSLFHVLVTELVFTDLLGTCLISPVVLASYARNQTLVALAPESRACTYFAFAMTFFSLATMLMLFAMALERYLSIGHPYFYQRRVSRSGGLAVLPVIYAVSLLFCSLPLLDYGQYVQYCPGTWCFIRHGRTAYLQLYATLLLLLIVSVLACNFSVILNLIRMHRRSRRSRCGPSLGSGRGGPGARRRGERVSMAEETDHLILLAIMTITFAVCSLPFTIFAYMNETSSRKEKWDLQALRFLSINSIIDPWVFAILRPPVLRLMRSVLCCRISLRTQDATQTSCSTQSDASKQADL

SMILES | Ki [nM]
COc1ccc(C(=O)N2CCC(COc3ccc(-c4ccc(C#N)cc4)cc3)(C(=O)O)C2)cc1 (single isomer, unassigned) [Example 1, 3-(4′-Cyano-biphenyl-4-yloxymethyl)-1-(4-methoxy-benzoyl)-pyrrolidine-3-carboxylic acid] | 0.633
N#Cc1ccc(-c2ccc(OCC3(C(=O)O)CCN(C(=O)c4ccc(F)cc4)C3)cc2)cc1 (single isomer, unassigned) [Example 2, 3-(4′-Cyano-biphenyl-4-yloxymethyl)-1-(4-fluoro-benzoyl)-pyrrolidine-3-carboxylic acid] | 0.344
O=C(c1ccc(F)cc1)N1CCC(COc2cnc(-c3ccc(Cl)cc3)nc2)(C(=O)O)C1 (single isomer, unassigned) [Example 5] | 1.64
O=C(c1ccc(F)cc1)N1CCC(COc2ccc(-c3ccc(Cl)cn3)cc2)(C(=O)O)C1 (single isomer, unassigned) [Example 12] | 4.82
O=C(c1ccc(F)cc1)N1CCC(COc2ccc(-c3ccc(Cl)cn3)cc2)(C(=O)O)C1 (single isomer, unassigned) [Example 13] | 333
O=C(c1ccc(F)cc1)N1CCC(COc2cccc(F)c2F)(C(=O)O)C1 (single isomer, unassigned) [Example 14] | 522
O=C(c1ccc(F)cc1)N1CCC(COc2ccc(-c3ncc(Cl)cn3)cc2)(C(=O)O)C1 (single isomer, unassigned) [Example 15] | 84.7
O=C(c1ccc(F)cc1)N1CCC(COc2ccc(-c3ncc(Cl)cn3)cc2)(C(=O)O)C1 (single isomer, unassigned) [Example 16] | 0.692
O=C(c1ccc(F)cc1)N1CCC(COc2ccc(-c3ccc(F)cc3)cc2)(C(=O)O)C1 (single isomer, unassigned) [Example 17] | 2.01
O=C(c1ccc(F)cc1)N1CCC(COc2ccc(-c3ccc(F)cc3)cc2)(C(=O)O)C1 (single isomer, unassigned) [Example 18] | 17.2
O=C(c1ccc(F)cc1)N1CCC(COc2ccc(F)c(Cl)c2)(C(=O)O)C1 (single isomer, unassigned) [Example 25] | 192
N#Cc1ccc(-c2ccc(OCC3(C(=O)O)CCN(C(=O)c4ccc(Cl)cc4)C3)cc2)cc1 (single isomer, unassigned) [Example 26] | 0.0376
N#Cc1ccc(-c2ccc(OCC3(C(=O)O)CCN(C(=O)c4ccc(Cl)cc4)C3)cc2)cc1 (single isomer, unassigned) [Example 27] | 4.34
O=C(c1ccc(Cl)cc1)N1CCC(COc2ccc(-c3ccc(F)cc3)cc2)(C(=O)O)C1 (single isomer, unassigned) [Example 36] | 1.16
O=C(c1ccc(Cl)cc1)N1CCC(COc2ccc(-c3ccc(F)cc3)cc2)(C(=O)O)C1 (single isomer, unassigned) [Example 37] | 30.3
COc1ccc(C(=O)N2CCC(COc3ccc(-c4ccc(F)cc4)cc3)(C(=O)O)C2)cc1 (single isomer, unassigned) [Example 40] | 2.36

SMILES | Ki [nM]
COc1ccc(C(=O)N2CCC(COc3ccc(-c4ccc(F)cc4)cc3)(C(=O)O)C2)cc1 (single isomer, unassigned) [Example 41] | 66.9
COc1ccc(C(=O)N2CCC(COc3ccc(-c4ncc(Cl)cn4)cc3)(C(=O)O)C2)cc1 (single isomer, unassigned) [Example 42] | 2.93
COc1ccc(C(=O)N2CCC(COc3ccc(-c4ncc(Cl)cn4)cc3)(C(=O)O)C2)cc1 (single isomer, unassigned) [Example 43] | 145
COc1ccc(C(=O)N2CCC(COc3ccc(-c4ccc(Cl)cc4)nc3)(C(=O)O)C2)cc1 (single isomer, unassigned) [Example 44] | 3.83
COc1ccc(C(=O)N2CCC(COc3ccc(-c4ccc(Cl)cc4)nc3)(C(=O)O)C2)cc1 (single isomer, unassigned) [Example 45] | 170
COc1ccc(C(=O)N2CCC(COc3ccc(-c4ccc(Cl)cn4)cc3)(C(=O)O)C2)cc1 (single isomer, unassigned) [Example 46] | 23.7
COc1ccc(C(=O)N2CCC(COc3ccc(-c4ccc(Cl)cn4)cc3)(C(=O)O)C2)cc1 (single isomer, unassigned) [Example 47] | 226
COc1ccc(C(=O)N2CCC(COc3cnc(-c4ccc(Cl)cc4)nc3)(C(=O)O)C2)cc1 (single isomer, unassigned) [Example 49] | 124
COc1ccc(C(=O)N2CCC(COc3cnc(-c4ccc(Cl)cc4)nc3)(C(=O)O)C2)cc1 (single isomer, unassigned) [Example 50] | 1.88
CCOc1ccccc1C(=O)N1CCC(COc2ccc(-c3ccc(F)cc3)cc2)(C(=O)O)C1 (single isomer, unassigned) [Example 53] | 17.5
CCOc1ccccc1C(=O)N1CCC(COc2ccc(-c3ccc(F)cc3)cc2)(C(=O)O)C1 (single isomer, unassigned) [Example 54] | 389
CCOc1ccccc1C(=O)N1CCC(COc2ccc(-c3ncc(Cl)cn3)cc2)(C(=O)O)C1 (single isomer, unassigned) [Example 55] | 28.9
CCOc1ccccc1C(=O)N1CCC(COc2ccc(-c3ncc(Cl)cn3)cc2)(C(=O)O)C1 (single isomer, unassigned) [Example 56] | 466
CCOc1ccccc1C(=O)N1CCC(COc2cnc(-c3ccc(Cl)cc3)nc2)(C(=O)O)C1 (single isomer, unassigned) [Example 57] | 29.4
CCOc1ccccc1C(=O)N1CCC(COc2cnc(-c3ccc(Cl)cc3)nc2)(C(=O)O)C1 (single isomer, unassigned) [Example 58] | 884
COc1ccccc1C(=O)N1CCC(COc2ccc(-c3ccc(C#N)cc3)nc2)(C(=O)O)C1 (single isomer, unassigned) [Example 61] | 26.2

Other lines, results leading:

Ki [nM] | SMILES
102 | O=C(c1ccc(F)cc1)N1CCC(COc2cnc(-c3ccc(Cl)cc3)nc2)(C(=O)O)C1 (single isomer, unassigned) [Example 6]
2.97 | O=C(c1ccc(F)cc1)N1CCC(COc2ccc(-c3ccc(Cl)cc3)nc2)(C(=O)O)C1 (single isomer, unassigned) [Example 7]
0.741 | O=C(c1ccc(F)cc1)N1CCC(COc2cnc(-c3ccc(Cl)cc3)cn2)(C(=O)O)C1 (single isomer, unassigned) [Example 10]
28.9 | O=C(c1ccc(F)cc1)N1CCC(COc2cnc(-c3ccc(Cl)cc3)cn2)(C(=O)O)C1 (single isomer, unassigned) [Example 11]
0.461 | O=C(c1ccc(Cl)cc1)N1CCC(COc2ccc(-c3ncc(Cl)cn3)cc2)(C(=O)O)C1 (single isomer, unassigned) [Example 30]
282 | O=C(c1ccc(Cl)cc1)N1CCC(COc2ccc(-c3ncc(Cl)cn3)cc2)(C(=O)O)C1 (single isomer, unassigned) [Example 31]
0.735 | O=C(c1ccc(Cl)cc1)N1CCC(COc2ccc(-c3ccc(Cl)cc3)nc2)(C(=O)O)C1 (single isomer, unassigned) [Example 32]
141 | O=C(c1ccc(Cl)cc1)N1CCC(COc2ccc(-c3ccc(Cl)cc3)nc2)(C(=O)O)C1 (single isomer, unassigned) [Example 33]
0.743 | O=C(c1ccc(Cl)cc1)N1CCC(COc2cnc(-c3ccc(Cl)cc3)cn2)(C(=O)O)C1 (single isomer, unassigned) [Example 34]
105 | O=C(c1ccc(Cl)cc1)N1CCC(COc2cnc(-c3ccc(Cl)cc3)cn2)(C(=O)O)C1 (single isomer, unassigned) [Example 35]
3.08 | COc1ccc(C(=O)N2CCC(COc3cnc(-c4ccc(Cl)cc4)cn3)(C(=O)O)C2)cc1 (single isomer, unassigned) [Example 38]
48.1 | COc1ccc(C(=O)N2CCC(COc3cnc(-c4ccc(Cl)cc4)cn3)(C(=O)O)C2)cc1 (single isomer, unassigned) [Example 39]
19.3 | CCOc1ccccc1C(=O)N1CCC(COc2cnc(-c3ccc(Cl)cc3)cn2)(C(=O)O)C1 (single isomer, unassigned) [Example 51]
134 | CCOc1ccccc1C(=O)N1CCC(COc2cnc(-c3ccc(Cl)cc3)cn2)(C(=O)O)C1 (single isomer, unassigned) [Example 52]
98.1 | COc1ccccc1C(=O)N1CCC(COc2cnc(-c3ccc(Cl)cc3)cn2)(C(=O)O)C1 (single isomer, unassigned) [Example 59]
